Data from patent US20230266303A1, “SYSTEM” (GTINVENT LIMITED, priority 2020, published 2023).
Several values for one entry are separate records, joined by “and”; a condition that tells them apart may be missing. Equal entries are not always repeated. Entries after “also recorded” stand apart in the source; their conditions may differ.

Test system: endogenous tau in dSH-SY5Y cells
Assay: Western blot of whole lysate and Triton X-100 sequential extraction of endogenous tau
Assay type: cell-based, human
Conditions: 24 h
Procedure: Cells were detached from the coverslip by incubation in 0.25% trypsin-EDTA (Gibco™) and then mixed with 5 ml culture media. The cells were harvested by centrifugation at 500×g for 5 minutes and the supernatant was discarded. The cell pellet was resuspended in ice-cold PBS and centrifuged at 500×g at 4° C. Cells were lysed in 1% Triton lysis buffer (1% Triton X-100 (v/v), 150 mM NaCl and 50 mM Tris-HCl, pH 7.6) containing Halt™ protease inhibitors (Thermo Scientific) and phosphatase inhibitors (Thermo Scientific) for 15 minutes on ice. The samples were centrifuged at 16,000×g for 30 minutes at 4° C., and the supernatant was collected (Triton-soluble fraction). The pellet was resuspended in SDS lysis buffer (1% SDS (w/v), 150 mM NaCl and 50 mM Tris-HCl, pH 7.6) containing protease and phosphatase inhibitors. The samples were centrifuged at 16,000×g for 30 minutes at room temperature and the supernatant was collected (Triton-insoluble fraction). Protein concentration in the Triton-soluble fractions were determined using the Pierce™ BCA Protein Assay Kit (Thermo Scientific) according to the manufacturer's instructions.
For cell lysates, Triton-soluble protein (20 μg) and an equal volume of Triton-insoluble protein were each mixed with Læmmli sample buffer (4×) (Bio-Rad Laboratories) containing 5% (v/v) […] and heated at 95° C. for 5 minutes. For recombinant protein, 3 μg was mixed with sample buffer without reducing agent or boiling. All samples were centrifuged for five minutes at 1000×g and samples were loaded onto 4-20% Mini-PROTEAN® precast gels (Bio-Rad Laboratories) and run at 120 V for 1 h in Tris-glycine running buffer (25 mM Tris, 192 mM glycine, pH 8.3), or until the sample buffer reached the end of the gel. For Coomassie staining, the gel was washed three times in double distilled water for five minutes and stained with Imperial™ protein stain (Thermo Scientific) for 1 h and then destained overnight in double distilled water. The stained gel was scanned using an HP Photosmart C5280 scanner. For western blotting, the separated proteins on the gel were transferred to nitrocellulose membrane (0.45 μm) at 200 mA for 90 minutes. The membranes were blocked in 5% (w/v) bovine serum albumin (BSA) in Tris-buffered saline (50 mM Tris-HCl, pH7.4, 150 mM NaCl) containing 0.1% (v/v) Tween-20 (TBS-T) for 1 h rocking at room temperature. Membranes were incubated with primary antibodies diluted in 5% BSA in TBS-T overnight at 4° C. The following primary antibodies and dilutions were used; Anti-Tau (polyclonal, total tau) (Thermo Scientific) (1:2500), AT180 (anti-pT231) (Thermo Scientific) (1:1000), AT8 (anti-pS202-T205) (1:1000) (Thermo Scientific), anti-GAPDH (1:5000) (Abcam). […] Immunoreactive protein bands were detected using ECL substrate (Clarity™, Bio-Rad) and X-ray films were scanned using an HP Photosmart C5280 scanner. FIJI was used to quantify the bands in arbitrary densitometry units. The density of bands corresponding to full-length tau (50-70 kDa) were determined and normalised against amount of GAPDH. […] For the quantification of Triton-insoluble and soluble protein, the proportion of tau in the insoluble and soluble fraction was calculated using the equations insoluble/(soluble+insoluble) or soluble/(soluble+insoluble), respectively and expressed as a percentage of the respective soluble or insoluble control value. […]

[1] = whole lysate (RIPA), 1 μM soluble dGAE

Substance: dGAE: recombinant truncated tau, 95 residues fragment of Tau (2N4R), Ile-297 to Glu-391, SEQ ID NO: 4
- proportion of AT180 tau in Triton-X 100 insoluble fraction, percentage of buffer-treated controls (soluble dGAE, buffer 100±0): 139.4±14.54% and 139.4±14.5%
- proportion of AT180 tau in Triton-X 100 soluble fraction, percentage of buffer-treated controls (soluble dGAE, buffer 100±0): 82.98±5.48% and 83.0±5.5%
- AT8 immunoreactivity vs buffer-treated control (western blot) [1]: no significant difference; also recorded: marginal increases
- AT180 immunoreactivity vs buffer-treated control (western blot) [1]: no significant difference; also recorded: marginal increases
- total tau immunoreactivity vs buffer-treated control (western blot) [1]: no significant difference; also recorded: no change
